# Measurements: PubChem BioAssay (NCI)
#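 Interpolation was linear, between the two tested concentrations surrounding the appropriate level; five concentrations were tested over 48 hours in 96-well plates. TGI: total growth inhibition.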
# Key:
# Assay in all cases: NCI tumour cell line growth inhibition, 48 h
# SK-MEL-2 melanoma = test system: SK-MEL-2 melanoma
# OVCAR-4 ovarian = test system: OVCAR-4 ovarian
# NCI/ADR-RES ovarian = test system: NCI/ADR-RES ovarian
# SNB-19 CNS = test system: SNB-19 CNS
# XF 498 CNS = test system: XF 498 CNS
# LXFL 529 NSCLC = test system: LXFL 529 NSCLC
# M19-MEL melanoma = test system: M19-MEL melanoma
# M14 melanoma = test system: M14 melanoma
# UO-31 renal = test system: UO-31 renal
# TK-10 renal = test system: TK-10 renal
# SK-MEL-5 melanoma = test system: SK-MEL-5 melanoma
# HCC-2998 colon = test system: HCC-2998 colon
# COLO 205 colon = test system: COLO 205 colon
# KM20L2 colon = test system: KM20L2 colon
# UACC-62 melanoma = test system: UACC-62 melanoma
# SR leukemia = test system: SR leukemia
# ACHN renal = test system: ACHN renal
# HL-60(TB) leukemia = test system: HL-60(TB) leukemia
# PC-3 prostate = test system: PC-3 prostate
# UACC-257 melanoma = test system: UACC-257 melanoma
# SN12C renal = test system: SN12C renal
# SK-OV-3 ovarian = test system: SK-OV-3 ovarian
# MALME-3M melanoma = test system: MALME-3M melanoma
# SF-539 CNS = test system: SF-539 CNS
# DMS 273 small cell lung = test system: DMS 273 small cell lung
# RPMI-8226 leukemia = test system: RPMI-8226 leukemia
# HCT-116 colon = test system: HCT-116 colon
# DMS 114 small cell lung = test system: DMS 114 small cell lung
# LOX IMVI melanoma = test system: LOX IMVI melanoma
# KM12 colon = test system: KM12 colon
# OVCAR-5 ovarian = test system: OVCAR-5 ovarian
# DU-145 prostate = test system: DU-145 prostate
# OVCAR-3 ovarian = test system: OVCAR-3 ovarian
# HCT-15 colon = test system: HCT-15 colon
# NCI-H226 lung = test system: NCI-H226 lung
# HT29 colon = test system: HT29 colon
# CAKI-1 renal = test system: CAKI-1 renal
# HOP-92 NSCLC = test system: HOP-92 NSCLC
# HS 578T breast = test system: HS 578T breast
# NCI-H23 lung = test system: NCI-H23 lung
# NCI-H522 lung = test system: NCI-H522 lung
# MDA-N = test system: MDA-N
# MDA-MB-435 = test system: MDA-MB-435
# IGROV1 ovarian = test system: IGROV1 ovarian
# U251 CNS = test system: U251 CNS
# A498 renal = test system: A498 renal
# SF-268 CNS = test system: SF-268 CNS
# RXF 393 renal = test system: RXF 393 renal
# MDA-MB-231 breast = test system: MDA-MB-231 breast
# K-562 leukemia = test system: K-562 leukemia
# MOLT-4 leukemia = test system: MOLT-4 leukemia
# SNB-75 CNS = test system: SNB-75 CNS
# SK-MEL-28 melanoma = test system: SK-MEL-28 melanoma
# BT-549 breast = test system: BT-549 breast
# SF-295 CNS = test system: SF-295 CNS
# CCRF-CEM leukemia = test system: CCRF-CEM leukemia
# OVCAR-8 ovarian = test system: OVCAR-8 ovarian
# A549 NSCLC = test system: A549 NSCLC
# HOP-62 NSCLC = test system: HOP-62 NSCLC
# EKVX NSCLC = test system: EKVX NSCLC
# SW-620 colon = test system: SW-620 colon
# NCI-H460 lung = test system: NCI-H460 lung
# MCF7 breast = test system: MCF7 breast
# T-47D breast = test system: T-47D breast
# 786-0 renal = test system: 786-0 renal
structure (smiles),measurement,setting,value
CN(C)[C@H]1CC[C@H]2[C@@H]3CCC4C[C@@H](NC(=O)NC(Cc5ccccc5)c5nccs5)CC[C@]4(C)[C@H]3CC[C@]12C (some centres undefined),TGI,SK-MEL-2 melanoma,3.41 µM
same,TGI,OVCAR-4 ovarian,3.18 µM
same,TGI,NCI/ADR-RES ovarian,4.83 µM
same,TGI,SNB-19 CNS,3.74 µM
same,TGI,XF 498 CNS,2.51 µM
same,TGI,LXFL 529 NSCLC,1.61 µM
same,TGI,M19-MEL melanoma,3.41 µM
same,TGI,M14 melanoma,3.23 µM
same,TGI,UO-31 renal,3.38 µM
same,TGI,TK-10 renal,3.89 µM
same,TGI,SK-MEL-5 melanoma,3.38 µM
same,TGI,HCC-2998 colon,3.16 µM
same,TGI,COLO 205 colon,3.05 µM
same,TGI,KM20L2 colon,2.81 µM
same,TGI,UACC-62 melanoma,3.46 µM
same,TGI,SR leukemia,4.14 µM
same,TGI,ACHN renal,2.86 µM
same,TGI,HL-60(TB) leukemia,0.376 µM
same,TGI,PC-3 prostate,2.35 µM
same,TGI,UACC-257 melanoma,3.63 µM
same,TGI,SN12C renal,3.36 µM
same,TGI,SK-OV-3 ovarian,3.09 µM
same,TGI,MALME-3M melanoma,3.37 µM
same,TGI,SF-539 CNS,3.37 µM
same,TGI,DMS 273 small cell lung,3.86 µM
same,TGI,RPMI-8226 leukemia,3.28 µM
same,TGI,HCT-116 colon,1.33 µM
same,TGI,DMS 114 small cell lung,3.31 µM
same,TGI,LOX IMVI melanoma,3.46 µM
same,TGI,KM12 colon,3.44 µM
same,TGI,OVCAR-5 ovarian,3.2 µM
same,TGI,DU-145 prostate,6.67 µM
same,TGI,OVCAR-3 ovarian,3.43 µM
same,TGI,HCT-15 colon,2.03 µM
same,TGI,NCI-H226 lung,3.89 µM
same,TGI,HT29 colon,1.9 µM
same,TGI,CAKI-1 renal,3.11 µM
same,TGI,HOP-92 NSCLC,2.82 µM
same,TGI,HS 578T breast,5.36 µM
same,TGI,NCI-H23 lung,3.89 µM
COc1ccc2oc(=O)c(-c3nc4ccccc4o3)cc2c1,TGI,NCI-H522 lung,> 100 µM
same,TGI,SK-MEL-2 melanoma,> 100 µM
same,TGI,MDA-N,> 100 µM
same,TGI,OVCAR-4 ovarian,> 100 µM
same,TGI,MDA-MB-435,> 100 µM
same,TGI,IGROV1 ovarian,> 100 µM
same,TGI,NCI/ADR-RES ovarian,> 100 µM
same,TGI,SNB-19 CNS,> 100 µM
same,TGI,M14 melanoma,> 100 µM
same,TGI,U251 CNS,> 100 µM
same,TGI,UO-31 renal,> 100 µM
same,TGI,TK-10 renal,> 100 µM
same,TGI,SK-MEL-5 melanoma,> 100 µM
same,TGI,HCC-2998 colon,> 100 µM
same,TGI,COLO 205 colon,> 100 µM
same,TGI,A498 renal,> 100 µM
same,TGI,SF-268 CNS,> 100 µM
same,TGI,UACC-62 melanoma,> 100 µM
same,TGI,SR leukemia,49.7 µM
same,TGI,ACHN renal,> 100 µM
same,TGI,RXF 393 renal,> 100 µM
same,TGI,HL-60(TB) leukemia,> 100 µM
same,TGI,MDA-MB-231 breast,> 100 µM
same,TGI,K-562 leukemia,> 100 µM
same,TGI,MOLT-4 leukemia,> 100 µM
same,TGI,PC-3 prostate,> 100 µM
same,TGI,SNB-75 CNS,> 100 µM
same,TGI,UACC-257 melanoma,> 100 µM
same,TGI,SN12C renal,> 100 µM
same,TGI,SK-MEL-28 melanoma,> 100 µM
same,TGI,BT-549 breast,> 100 µM
same,TGI,SK-OV-3 ovarian,> 100 µM
same,TGI,MALME-3M melanoma,> 100 µM
same,TGI,SF-539 CNS,> 100 µM
same,TGI,SF-295 CNS,> 100 µM
same,TGI,CCRF-CEM leukemia,> 100 µM
same,TGI,RPMI-8226 leukemia,> 100 µM
same,TGI,HCT-116 colon,> 100 µM
same,TGI,OVCAR-8 ovarian,> 100 µM
same,TGI,A549 NSCLC,> 100 µM
same,TGI,LOX IMVI melanoma,> 100 µM
same,TGI,KM12 colon,> 100 µM
same,TGI,OVCAR-5 ovarian,> 100 µM
same,TGI,HOP-62 NSCLC,> 100 µM
same,TGI,DU-145 prostate,> 100 µM
same,TGI,EKVX NSCLC,> 100 µM
same,TGI,OVCAR-3 ovarian,> 100 µM
same,TGI,SW-620 colon,> 100 µM
same,TGI,HCT-15 colon,> 100 µM
same,TGI,NCI-H460 lung,> 100 µM
same,TGI,NCI-H226 lung,> 100 µM
same,TGI,MCF7 breast,> 100 µM
same,TGI,HT29 colon,> 100 µM
same,TGI,T-47D breast,> 100 µM
same,TGI,786-0 renal,> 100 µM
same,TGI,CAKI-1 renal,> 100 µM
same,TGI,HOP-92 NSCLC,> 100 µM
same,TGI,HS 578T breast,> 100 µM
same,TGI,NCI-H23 lung,> 100 µM
